Data: ChEMBL document CHEMBL5465560, “Selectivity Literature for EUbOPEN Chemogenomic Library” (2024)

Experiments:
[1] = molecular target: Serine/threonine-protein kinase PAK 6 (Homo sapiens) (UniProt Q9NQU5); experiment: Selectivity interaction (KinomeScan (DiscoverX)) EUB0000595a PAK6; settings: at 10 µM
[2] = molecular target: T1, Serine/threonine-protein kinase LATS2 (Homo sapiens) (UniProt Q9NRM7); settings: at 10 µM
T1 sequence (whole entry): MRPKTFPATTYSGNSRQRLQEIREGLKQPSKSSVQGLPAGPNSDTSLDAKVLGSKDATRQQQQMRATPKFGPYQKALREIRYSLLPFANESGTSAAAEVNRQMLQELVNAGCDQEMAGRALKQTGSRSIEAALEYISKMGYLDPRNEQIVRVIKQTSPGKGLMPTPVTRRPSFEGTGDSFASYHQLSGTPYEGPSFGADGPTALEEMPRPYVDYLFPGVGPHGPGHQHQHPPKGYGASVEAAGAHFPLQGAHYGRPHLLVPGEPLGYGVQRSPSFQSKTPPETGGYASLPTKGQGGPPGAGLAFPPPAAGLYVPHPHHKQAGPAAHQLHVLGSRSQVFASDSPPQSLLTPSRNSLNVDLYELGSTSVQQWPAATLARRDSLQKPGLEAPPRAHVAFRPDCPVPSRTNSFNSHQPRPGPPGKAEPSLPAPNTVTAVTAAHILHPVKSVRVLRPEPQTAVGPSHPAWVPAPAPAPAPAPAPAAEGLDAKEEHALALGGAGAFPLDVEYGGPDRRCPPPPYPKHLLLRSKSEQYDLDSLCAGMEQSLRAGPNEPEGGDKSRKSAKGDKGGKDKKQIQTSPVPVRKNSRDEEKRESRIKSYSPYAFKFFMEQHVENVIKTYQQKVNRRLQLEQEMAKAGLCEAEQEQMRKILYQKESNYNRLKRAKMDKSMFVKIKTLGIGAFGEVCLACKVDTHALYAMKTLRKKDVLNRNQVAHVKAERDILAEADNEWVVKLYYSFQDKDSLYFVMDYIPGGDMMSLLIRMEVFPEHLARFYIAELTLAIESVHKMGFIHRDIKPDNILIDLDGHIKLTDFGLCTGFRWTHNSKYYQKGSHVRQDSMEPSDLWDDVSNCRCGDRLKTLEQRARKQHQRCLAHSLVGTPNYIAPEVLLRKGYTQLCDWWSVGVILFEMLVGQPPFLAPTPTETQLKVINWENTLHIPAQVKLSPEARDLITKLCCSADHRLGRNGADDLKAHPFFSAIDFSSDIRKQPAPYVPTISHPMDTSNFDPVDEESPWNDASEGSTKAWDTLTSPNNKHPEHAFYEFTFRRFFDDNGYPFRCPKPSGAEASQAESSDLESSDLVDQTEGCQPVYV

[3] = tested on: Phosphatidylinositol 4,5-bisphosphate 3-kinase catalytic subunit alpha isoform (Homo sapiens), P42336 [H1047L]; experiment: (§1) Selectivity interaction (KinomeScan (DiscoverX)) EUB0001049a PIK3CA; settings: at 1 µM
[4] = tested on: Phosphatidylinositol 4,5-bisphosphate 3-kinase catalytic subunit alpha isoform (Homo sapiens), P42336 [C420R]; experiment: as §1; settings: at 1 µM
Chain of Phosphatidylinositol 4,5-bisphosphate 3-kinase catalytic subunit alpha isoform (Homo sapiens), P42336 [C420R] (P42336 whole entry C420R, canonical isoform): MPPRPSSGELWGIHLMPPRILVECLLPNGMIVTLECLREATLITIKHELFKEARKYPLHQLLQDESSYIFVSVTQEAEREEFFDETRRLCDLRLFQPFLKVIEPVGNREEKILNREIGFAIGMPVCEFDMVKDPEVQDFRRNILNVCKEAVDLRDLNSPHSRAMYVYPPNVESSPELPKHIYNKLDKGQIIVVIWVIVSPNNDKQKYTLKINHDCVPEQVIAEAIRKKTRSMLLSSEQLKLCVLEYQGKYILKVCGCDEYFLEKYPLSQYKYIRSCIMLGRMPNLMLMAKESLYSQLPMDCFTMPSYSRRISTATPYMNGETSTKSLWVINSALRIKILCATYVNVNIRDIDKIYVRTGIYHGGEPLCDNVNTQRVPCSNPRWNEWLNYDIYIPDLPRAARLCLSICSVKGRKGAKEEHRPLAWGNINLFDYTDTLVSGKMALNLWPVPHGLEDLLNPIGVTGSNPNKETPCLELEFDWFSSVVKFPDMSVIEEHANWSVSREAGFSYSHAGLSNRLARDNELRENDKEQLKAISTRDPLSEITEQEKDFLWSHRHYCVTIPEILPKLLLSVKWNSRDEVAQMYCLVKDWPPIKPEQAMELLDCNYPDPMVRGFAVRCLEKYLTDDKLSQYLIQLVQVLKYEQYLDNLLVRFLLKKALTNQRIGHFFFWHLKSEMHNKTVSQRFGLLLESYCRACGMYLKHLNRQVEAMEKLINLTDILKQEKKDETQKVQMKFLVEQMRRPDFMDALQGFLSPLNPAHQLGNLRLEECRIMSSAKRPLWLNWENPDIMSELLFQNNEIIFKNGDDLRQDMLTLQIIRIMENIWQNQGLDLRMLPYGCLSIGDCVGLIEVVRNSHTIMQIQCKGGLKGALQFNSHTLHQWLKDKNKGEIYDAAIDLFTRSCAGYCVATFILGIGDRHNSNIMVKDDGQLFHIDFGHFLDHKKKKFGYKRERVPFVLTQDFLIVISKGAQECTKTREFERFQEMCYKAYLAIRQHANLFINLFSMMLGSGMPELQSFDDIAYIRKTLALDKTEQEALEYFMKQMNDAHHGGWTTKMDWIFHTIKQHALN

[5] = tested on: Phosphatidylinositol 4,5-bisphosphate 3-kinase catalytic subunit alpha isoform (Homo sapiens), P42336 [E542K]; experiment: as §1; settings: at 1 µM
[6] = tested on: Phosphatidylinositol 4,5-bisphosphate 3-kinase catalytic subunit alpha isoform (Homo sapiens), P42336 [M1043I]; experiment: as §1; settings: at 1 µM
[7] = tested on: Phosphatidylinositol 4,5-bisphosphate 3-kinase catalytic subunit alpha isoform (Homo sapiens), P42336 [I800L]; experiment: as §1; settings: at 1 µM
Chain of Phosphatidylinositol 4,5-bisphosphate 3-kinase catalytic subunit alpha isoform (Homo sapiens), P42336 [I800L] (P42336 whole entry I800L, canonical isoform): as the sequence (P42336 whole entry C420R, canonical isoform) above, with R420C, I800L counted along it

[8] = tested on: Phosphatidylinositol 4,5-bisphosphate 3-kinase catalytic subunit alpha isoform (Homo sapiens), P42336 [E545A]; experiment: as §1; settings: at 1 µM
[9] = tested on: Phosphatidylinositol 4,5-bisphosphate 3-kinase catalytic subunit alpha isoform (Homo sapiens), P42336 [Q546K]; experiment: as §1; settings: at 1 µM
[10] = molecular target: Phosphatidylinositol 4,5-bisphosphate 3-kinase catalytic subunit alpha isoform (Homo sapiens) (UniProt P42336); experiment: as §1; settings: at 1 µM
[11] = tested on: Phosphatidylinositol 4,5-bisphosphate 3-kinase catalytic subunit alpha isoform (Homo sapiens), P42336 [E545K]; experiment: as §1; settings: at 1 µM
[12] = tested on: Phosphatidylinositol 4,5-bisphosphate 3-kinase catalytic subunit alpha isoform (Homo sapiens), P42336 [H1047Y]; experiment: as §1; settings: at 1 µM
[13] = molecular target: Serine/threonine-protein kinase SIK2 (Homo sapiens) (UniProt Q9H0K1); experiment: Selectivity interaction (KinomeScan (DiscoverX)) EUB0000607a SIK2; settings: at 10 µM
Chain of Serine/threonine-protein kinase SIK2 (Homo sapiens) (Q9H0K1 whole entry, looked up): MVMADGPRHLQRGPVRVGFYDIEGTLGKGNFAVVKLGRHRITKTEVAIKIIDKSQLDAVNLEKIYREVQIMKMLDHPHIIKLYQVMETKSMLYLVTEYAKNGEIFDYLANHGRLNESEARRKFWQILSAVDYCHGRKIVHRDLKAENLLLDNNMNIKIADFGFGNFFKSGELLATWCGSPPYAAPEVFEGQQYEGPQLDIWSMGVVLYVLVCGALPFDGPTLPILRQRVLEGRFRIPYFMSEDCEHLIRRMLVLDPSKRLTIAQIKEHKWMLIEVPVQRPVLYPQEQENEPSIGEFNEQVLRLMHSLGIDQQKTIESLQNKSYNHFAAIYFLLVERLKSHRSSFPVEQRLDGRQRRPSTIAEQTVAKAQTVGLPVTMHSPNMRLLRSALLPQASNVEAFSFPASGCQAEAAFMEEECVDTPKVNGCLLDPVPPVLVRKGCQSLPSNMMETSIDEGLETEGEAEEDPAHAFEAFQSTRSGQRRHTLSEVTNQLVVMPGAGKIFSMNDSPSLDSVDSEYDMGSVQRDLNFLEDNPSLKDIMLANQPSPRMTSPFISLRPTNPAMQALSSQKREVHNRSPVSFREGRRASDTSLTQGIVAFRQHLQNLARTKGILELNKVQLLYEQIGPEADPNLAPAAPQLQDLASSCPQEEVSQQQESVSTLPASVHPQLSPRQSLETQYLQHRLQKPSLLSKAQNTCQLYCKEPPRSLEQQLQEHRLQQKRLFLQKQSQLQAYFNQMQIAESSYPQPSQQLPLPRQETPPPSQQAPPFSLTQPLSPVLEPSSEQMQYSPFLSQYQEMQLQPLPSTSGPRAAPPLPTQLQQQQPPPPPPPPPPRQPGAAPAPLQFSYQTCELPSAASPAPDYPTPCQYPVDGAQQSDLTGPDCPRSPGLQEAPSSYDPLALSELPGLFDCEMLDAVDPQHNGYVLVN

Aurora kinase B = Aurora kinase B (Homo sapiens, UniProt Q96GD4); experiment: Selectivity interaction (KinomeScan (DiscoverX)) EUB0000607a AURKB; settings: at 10 µM
Focal adhesion kinase 1 = Focal adhesion kinase 1 (Homo sapiens, UniProt Q05397); experiment: Selectivity interaction (ActivX KiNativ screen (kinase selectivity in THP-1 cell lysates)) EUB0000639a PTK2; type: subcellular; settings: lysate
Chain of Focal adhesion kinase 1 (Q05397 2-1052 limits assumed): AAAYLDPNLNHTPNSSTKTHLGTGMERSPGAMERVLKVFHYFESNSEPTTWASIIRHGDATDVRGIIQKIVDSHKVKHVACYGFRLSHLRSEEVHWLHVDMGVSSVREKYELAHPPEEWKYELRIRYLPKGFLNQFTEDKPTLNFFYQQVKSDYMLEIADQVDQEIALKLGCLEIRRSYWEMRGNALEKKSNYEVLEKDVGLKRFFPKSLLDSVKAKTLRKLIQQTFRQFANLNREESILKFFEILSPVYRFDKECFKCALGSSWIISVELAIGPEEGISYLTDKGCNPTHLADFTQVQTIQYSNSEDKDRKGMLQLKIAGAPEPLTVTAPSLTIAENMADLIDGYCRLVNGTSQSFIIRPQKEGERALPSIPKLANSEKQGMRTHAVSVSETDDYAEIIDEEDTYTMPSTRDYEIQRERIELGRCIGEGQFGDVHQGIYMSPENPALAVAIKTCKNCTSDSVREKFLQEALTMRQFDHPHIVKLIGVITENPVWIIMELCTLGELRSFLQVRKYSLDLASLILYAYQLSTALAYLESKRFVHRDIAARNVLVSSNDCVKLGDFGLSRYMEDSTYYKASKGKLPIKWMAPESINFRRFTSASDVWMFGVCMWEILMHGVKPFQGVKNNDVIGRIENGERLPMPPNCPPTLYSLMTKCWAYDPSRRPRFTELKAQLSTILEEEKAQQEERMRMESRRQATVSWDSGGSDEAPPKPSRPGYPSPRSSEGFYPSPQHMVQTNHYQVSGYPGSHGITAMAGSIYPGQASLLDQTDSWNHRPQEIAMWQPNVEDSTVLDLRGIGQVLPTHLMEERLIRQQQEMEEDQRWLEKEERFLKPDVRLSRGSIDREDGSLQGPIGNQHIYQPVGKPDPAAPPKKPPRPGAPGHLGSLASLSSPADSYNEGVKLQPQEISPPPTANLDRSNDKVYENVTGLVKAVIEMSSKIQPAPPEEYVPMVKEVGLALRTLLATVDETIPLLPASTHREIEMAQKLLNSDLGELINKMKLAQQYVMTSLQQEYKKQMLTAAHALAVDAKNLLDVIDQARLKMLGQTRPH

[14] = molecular target: Ribosomal protein S6 kinase alpha-2 (Homo sapiens) (UniProt Q15349); settings: at 10 µM
[15] = molecular target: T2, Dual serine/threonine and tyrosine protein kinase (Homo sapiens) (UniProt Q6XUX3); experiment: Selectivity interaction (KinomeScan (DiscoverX)) EUB0000092b DSTYK; settings: at 10 µM
T2 sequence (whole entry): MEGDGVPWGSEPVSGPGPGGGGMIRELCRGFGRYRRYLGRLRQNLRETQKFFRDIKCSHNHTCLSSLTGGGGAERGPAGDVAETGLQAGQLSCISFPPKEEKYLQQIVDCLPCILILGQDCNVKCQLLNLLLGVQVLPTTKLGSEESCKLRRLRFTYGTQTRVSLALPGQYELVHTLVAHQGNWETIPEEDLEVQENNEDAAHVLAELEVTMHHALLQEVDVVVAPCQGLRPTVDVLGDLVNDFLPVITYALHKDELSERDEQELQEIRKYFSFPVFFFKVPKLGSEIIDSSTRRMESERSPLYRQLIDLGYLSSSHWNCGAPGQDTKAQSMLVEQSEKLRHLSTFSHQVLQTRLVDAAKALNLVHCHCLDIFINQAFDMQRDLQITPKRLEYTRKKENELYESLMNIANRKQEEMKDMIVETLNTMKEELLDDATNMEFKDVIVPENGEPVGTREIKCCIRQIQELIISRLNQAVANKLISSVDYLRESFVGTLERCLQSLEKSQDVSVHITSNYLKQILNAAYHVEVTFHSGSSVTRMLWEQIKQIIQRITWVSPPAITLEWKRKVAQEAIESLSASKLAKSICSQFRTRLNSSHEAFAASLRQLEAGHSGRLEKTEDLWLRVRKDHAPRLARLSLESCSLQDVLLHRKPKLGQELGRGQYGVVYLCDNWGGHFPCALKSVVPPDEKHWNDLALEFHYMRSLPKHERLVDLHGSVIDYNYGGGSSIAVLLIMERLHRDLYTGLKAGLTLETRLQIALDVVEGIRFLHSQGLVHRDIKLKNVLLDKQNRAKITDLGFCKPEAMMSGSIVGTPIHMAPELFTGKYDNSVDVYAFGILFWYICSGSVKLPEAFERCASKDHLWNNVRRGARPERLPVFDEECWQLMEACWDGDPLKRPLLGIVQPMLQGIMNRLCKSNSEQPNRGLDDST

Chain of Serine/threonine-protein kinase PAK 6 (Homo sapiens) (Q9NQU5 whole entry, looked up): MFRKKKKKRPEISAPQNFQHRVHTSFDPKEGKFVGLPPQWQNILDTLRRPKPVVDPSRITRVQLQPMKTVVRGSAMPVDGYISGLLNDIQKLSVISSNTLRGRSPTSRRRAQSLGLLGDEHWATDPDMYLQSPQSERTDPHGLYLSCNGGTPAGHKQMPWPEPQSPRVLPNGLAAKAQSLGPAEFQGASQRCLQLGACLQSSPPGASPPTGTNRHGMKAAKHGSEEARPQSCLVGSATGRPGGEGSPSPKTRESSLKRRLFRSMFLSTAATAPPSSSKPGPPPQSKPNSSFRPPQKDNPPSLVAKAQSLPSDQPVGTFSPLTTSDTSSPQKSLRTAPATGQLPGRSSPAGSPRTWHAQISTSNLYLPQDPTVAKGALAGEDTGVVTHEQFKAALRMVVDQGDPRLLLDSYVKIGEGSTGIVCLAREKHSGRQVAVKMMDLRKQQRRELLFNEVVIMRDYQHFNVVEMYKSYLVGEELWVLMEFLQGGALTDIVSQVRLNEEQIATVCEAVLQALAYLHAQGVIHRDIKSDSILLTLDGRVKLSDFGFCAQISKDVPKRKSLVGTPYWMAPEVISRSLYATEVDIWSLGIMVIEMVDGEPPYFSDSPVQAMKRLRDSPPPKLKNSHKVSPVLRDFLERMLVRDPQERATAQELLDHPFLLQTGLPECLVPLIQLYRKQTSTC

COCC(=O)NC/C=C/c1ccc2ncnc(Nc3ccc(Oc4ccc(C)nc4)c(C)c3)c2c1 [CP-724714]
% of control [1]: 89%

Cc1cc([C@@H](C)Nc2ccccc2C(=O)O)c2nc(N3CCOCC3)cc(=O)n2c1 [AZD-6482]
% of control [2]: 63%

COc1cc(Nc2nc(C)cc(-c3cnn4nc(OC)ccc34)n2)cc(C(F)(F)F)c1
% of control [3]: 100%
% of control [4]: 76%
% of control [5]: 59%
% of control [6]: 100%
% of control [7]: 46%
% of control [8]: 77%
% of control [9]: 66%
% of control [10]: 100%
% of control [11]: 71%
% of control [12]: 85%

CNC(=O)Nc1ccc(-c2nc(N3CC4CCC(C3)O4)c3cnn(C4CCC5(CC4)OCCO5)c3n2)cc1
% of control [13]: 97%
% of control (Aurora kinase B): 92%

CC[C@@H]1[C@H](F)C(=O)N[C@@H]1COc1nccc2cc(C(N)=O)c(OC)cc12 [ZIMLOVISERTIB]
% of inhibition (Focal adhesion kinase 1; at 0.01 µM): 25.4%
% of inhibition (Focal adhesion kinase 1; at 0.04 µM): -3.4%
% of inhibition (Focal adhesion kinase 1; at 0.2 µM): -1.1%
% of inhibition (Focal adhesion kinase 1; at 1 µM): -16.1%
% of inhibition (Focal adhesion kinase 1; at 5 µM): 15.5%

CCN(CC)CCCCNc1ncc2cc(-c3cc(OC)cc(OC)c3)c(NC(=O)NC(C)(C)C)nc2n1
% of control [14]: 100%

CCC(=O)N1CCN(c2ccc(-n3c(=O)ccc4cnc5ccc(-c6cnc7ccccc7c6)cc5c43)cc2C(F)(F)F)CC1
% of control [15]: 28%
